The values below come from US11091428B2 (HAPLOGEN GMBH, priority 2016, dated 2021).

For assay [1], the target named is T1, PLA2G16 (Homo sapiens, UniProt P53816).
T1 construct: Hexa-His (N); made in house; host or cells: E. coli BL21(DE3)
T1 sequence (P53816 1-162): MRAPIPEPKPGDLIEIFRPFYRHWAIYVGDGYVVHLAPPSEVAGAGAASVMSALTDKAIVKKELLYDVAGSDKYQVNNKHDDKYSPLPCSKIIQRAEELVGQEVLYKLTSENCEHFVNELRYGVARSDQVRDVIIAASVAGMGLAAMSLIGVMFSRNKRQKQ
The experiment in a line: Enzyme activity assay for PLA2G16 (Red/Green BODIPY PC-A2 fluorescence). The class given is biochemical. To be noted: His-tagged PLA2G16, 4 min pre-incubation, 2 nM to 50 μM; read-out: IC50 values of the compounds determined in the enzyme activity assay for PLA2G16. The essentials: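 N-His-tagged human PLA2G16 from E. coli, Ni-NTA purified. Pre-incubated 4 min with compound (2 nM–50 μM final) in pH 8.5 Tris/NaCl buffer with 5 mM glutathione, then BODIPY PC-A2 in DOPC/DOPG/cholesterol vesicles added. Fluorescence (ex 480/em 530 nm) increase over 10 min taken as activity; IC50 by non-linear regression.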

The subject of assay [2] is picornaviruses (CVB1, HRV-A2, HRV-A23, EV-68). The experiment in a line: Anti-picornavirus cytopathic effect (CPE) reduction assay on HeLa H1 cells. The class given is cell-based. To be noted: Enterovirus B, HeLa H1, 48 h, HeLa H1 cells, 48 h, category from averaging the EC50 values from four picornaviruses (CVB1, HRV-A2, HRV-A23, EV68); read-out: EC50 values of the compounds determined in the anti-picornavirus assay. The gist of the method: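 HeLa H1 cells pre-treated 2 h with serially diluted compound in DMEM/2% FBS, then infected at an MOI giving full CPE in 2 days. After 48 h at 37° C, viability read by CellTiterBlue fluorescence (ex 560/em 590 nm), normalised to infected and uninfected vehicle controls; EC50 by non-linear regression, category from mean of four viruses.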
(Cytopathic effects are the visible damage that an infection or toxin causes in cultured cells.)

Structures are written as SMILES.

For `N#CCCNC(=O)C(=O)[C@H]1CCC(=O)N1Cc1ccccc1` [FP 262, 2-[(2R)-1-Benzyl-5-oxopyrrolidin-2-yl]-N-(2-cyanoethyl)-2-oxoacetamide], in assay [1], the IC50 (in general, the point on the concentration scale where inhibition reaches its midpoint) was less than 1000 nM. In addition, the EC50 – broadly, the concentration needed to bring the measured effect to its halfway point – in assay [2] lay within 1000 to 10000 nM.

Regarding `COc1ccccc1S(=O)(=O)NC(C)C(=O)C(=O)NCC1CC1` (stereo not drawn) [FP 220, N-(Cyclopropylmethyl)-3-(2-methoxybenzenesulfonamido)-2-oxobutanamide], the IC50 in assay [1] was less than 1000 nM. Moreover, the EC50 in assay [2] is 1000 to 10000 nM.

Take `O=C(NCC1CCCCC1)C(=O)C1CCC(=O)N1Cc1ccc2c(c1)CNC2=O` (stereo not drawn) [FP 244, N-(Cyclohexylmethyl)-2-oxo-2-{5-oxo-1-[(1-oxo-2,3-dihydro-1H-isoindol-5-yl)methyl]-pyrrolidin-2-yl}acetamide]: in assay [1], the IC50 was less than 1000 nM. Also, the EC50 in assay [2] fell in the range of 1000 to 10000 nM.

As for `O=C(NC1CCC1)C(=O)[C@H]1CCC(=O)N1Cc1ccccc1` [FP 237, 2-[(2R)-1-Benzyl-5-oxopyrrolidin-2-yl]-N-cyclobutyl-2-oxoacetamide], the IC50 in assay [1] is less than 1000 nM. Moreover, in assay [2], the EC50 is less than 1000 nM.

For `Cc1ccccc1C(=O)N[C@@H](C)C(=O)C(=O)NCC1CC1` (single isomer, unassigned) [FP 157], the IC50 in assay [1] was less than 1000 nM. For the same molecule, in assay [2], the EC50 was in the range of 1000 to 10000 nM.

In the case of `Cc1nc(C)n(CCCNC(=O)C(=O)C2CCC(=O)N2Cc2ccccc2)n1` (stereo not drawn) [FP 231, 2-(1-Benzyl-5-oxopyrrolidin-2-yl)-N-[3-(3,5-dimethyl-1H-1,2,4-triazol-1-yl)propyl]-2-oxoacetamide], in assay [1], the concentration for half-maximal inhibition (IC50) is less than 1000 nM. Moreover, the EC50 in assay [2] was greater than 10000 nM.

For the molecule `CCCC(C(=O)C(=O)NCC1CC1)N(C=O)CC1CCOCC1` (stereo not drawn) [FP 58, N-(Cyclopropylmethyl)-3-{N-[(oxan-4-yl)methyl]formamido}-2-oxohexanamide], the IC50 in assay [1] was less than 1000 nM. In assay [2], the EC50 fell in the range of 1000 to 10000 nM.

For the molecule `CC(C)CC(C(=O)C(=O)NCC1CC1)N(C=O)C[C@@H]1CCOC1` (stereo partly drawn) [FP 64, N-(Cyclopropylmethyl)-5-methyl-2-oxo-3-(N{[(3S)-oxolan-3-yl]methyl}formamido) hexanamide], in assay [1], the IC50 is less than 1000 nM. Also, in assay [2], the EC50 was 1000 to 10000 nM.

In the case of `O=CN(Cc1ccccc1)[C@@H](Cc1c[nH]cn1)C(=O)C(=O)NCC1CCCCC1` [FP 118, (3S)-3-(N-Benzylformamido)-N-(cyclohexylmethyl)-4-(1H-imidazol-4-yl)-2-oxobutanamide], the IC50 in assay [1] is less than 1000 nM. In assay [2], the concentration giving a half-maximal response (EC50) was in the range of 1000 to 10000 nM.

For `COc1ccccc1N(C(=O)C(C)C)C(C)C(=O)C(=O)NCc1cccc(Cl)c1` (stereo not drawn) [FP 142, N-[(3-Chlorophenyl)methyl]-3-[N-(2-methoxyphenyl)-2-methylpropanamido]-2-oxobutanamide], the half-maximal inhibitory concentration (IC50) in assay [1] is less than 1000 nM. In addition, the EC50 in assay [2] lay within 1000 to 10000 nM.

For the molecule `C[C@@H]1CC(=O)N(Cc2ccccc2)[C@@H]1C(=O)C(=O)NCC1CC1` (single isomer, unassigned) [FP 335], the 50% inhibitory concentration (IC50) in assay [1] is less than 1000 nM. Moreover, the EC50 in assay [2] was 1000 to 10000 nM.

As to `CC(C(=O)C(=O)NCc1cccc(Cl)c1)N(C=O)CC1CCCCC1` (stereo not drawn) [FP 18, N-[(3-Chlorophenyl)methyl]-3-[N-(cyclohexylmethyl)formamido]-2-oxobutanamide], the IC50 in assay [1] is less than 1000 nM. Further, the EC50 in assay [2] was less than 1000 nM.

As for `O=C(NCC1CCCCC1)C(=O)C1CCC(=O)N1CCC1CCOCC1` (stereo not drawn) [FP 245, N-(Cyclohexylmethyl)-2-{1-[2-(oxan-4-yl)ethyl]-5-oxopyrrolidin-2-yl}-2-oxoacetamide], the IC50 in assay [1] was less than 1000 nM. Besides, the EC50 in assay [2] is 1000 to 10000 nM.

As to `NC(=O)c1cccc(CN2C(=O)CCC2C(=O)C(=O)NCC2CC2)c1` (stereo not drawn) [FP 250, 3-[(2-{[(Cyclopropylmethyl)carbamoyl]carbonyl}-5-oxopyrrolidin-1-yl)methyl]benzamide], the IC50 in assay [1] was less than 1000 nM. For the same molecule, the EC50 in assay [2] fell in the range of 1000 to 10000 nM.

Turning to `C[C@@H]1C[C@H]1NC(=O)C(=O)[C@H]1CCC(=O)N1Cc1ccccc1` [FP 271, 2-[(2R)-1-Benzyl-5-oxopyrrolidin-2-yl]-N-[(1R,2R)-2-methylcyclopropyl]-2-oxoacetamide], the IC50 in assay [1] is less than 1000 nM. The EC50 in assay [2] was less than 1000 nM.

In the case of `CC(NC(=O)c1ccccc1Cl)C(=O)C(=O)NCC1CC1` (stereo not drawn) [FP 169, 3-[(2-Chlorophenyl)formamido]-(cyclopropylmethyl)-2-oxobutanamide], in assay [1], the IC50 was less than 1000 nM. Besides, in assay [2], the EC50 was in the range of 1000 to 10000 nM.

Regarding `COc1ccccc1N(C=O)CCC(=O)C(=O)NCc1cccc(Cl)c1` [FP 115, N-[(3-Chlorophenyl)methyl]-4-[N-(2-methoxyphenyl)formamido]-2-oxobutanamide], in assay [1], the IC50 is less than 1000 nM. In addition, the EC50 in assay [2] lay in the range of 1000 to 10000 nM.

Regarding `CCCC(NC(=O)c1ccccc1)C(=O)C(=O)NCC1CC1` (stereo not drawn) [FP 154, N-(Cyclopropylmethyl)-2-oxo-3-(phenylformamido)hexanamide], the IC50 in assay [1] was less than 1000 nM. Moreover, in assay [2], the EC50 was 1000 to 10000 nM.
